According to BigSolDB 2.1:

C=CC(=O)NC(C)(C)C
Conditions | solubility (mole fraction)
in DMAc, 293.15 K | 0.0814
in DMAc, 298.15 K | 0.0897
in DMAc, 303.15 K | 0.0979
in DMAc, 308.15 K | 0.11
in DMAc, 313.15 K | 0.127
in DMAc, 318.15 K | 0.146
in DMAc, 323.15 K | 0.172
in DMAc, 328.15 K | 0.203
in DMAc, 333.15 K | 0.236
in DMAc, 338.15 K | 0.274
in DMAc, 343.15 K | 0.317
in DMAc, 348.15 K | 0.364
in DMAc, 353.15 K | 0.43
in DMF, 288.15 K | 0.0207
in DMF, 293.15 K | 0.0237
in DMF, 298.15 K | 0.0283
in DMF, 303.15 K | 0.0333
in DMF, 308.15 K | 0.0403
in DMF, 313.15 K | 0.0463
in DMF, 318.15 K | 0.0529
in DMF, 323.15 K | 0.0599
in DMF, 328.15 K | 0.0709
in DMF, 333.15 K | 0.0833
in DMF, 338.15 K | 0.0987
in DMF, 343.15 K | 0.117
in DMF, 348.15 K | 0.138
in DMF, 353.15 K | 0.166
in dichloromethane, 279.15 K | 0.00541
in dichloromethane, 283.15 K | 0.0065
in dichloromethane, 285.15 K | 0.0072
in dichloromethane, 287.15 K | 0.00798
in dichloromethane, 289.15 K | 0.00889
in dichloromethane, 291.15 K | 0.00962
in dichloromethane, 293.15 K | 0.0106
in dichloromethane, 296.15 K | 0.0117
in dichloromethane, 298.15 K | 0.0128
in dichloromethane, 301.15 K | 0.0142
in dichloromethane, 304.15 K | 0.016
in ethanol, 284.95 K | 0.00136
in ethanol, 287.95 K | 0.00152
in ethanol, 291.15 K | 0.0017
in ethanol, 294.15 K | 0.0021
in ethanol, 297.15 K | 0.0024
in ethanol, 300.15 K | 0.00283
in ethanol, 304.15 K | 0.00344
in ethanol, 307.15 K | 0.00392
in ethanol, 310.15 K | 0.00463
in ethanol, 313.15 K | 0.00522
in ethanol, 316.15 K | 0.00598
in ethanol, 319.15 K | 0.00677
in ethanol, 324.15 K | 0.00864
in ethanol, 330.15 K | 0.0113
in ethanol, 335.15 K | 0.0142
in ethyl acetate, 287.15 K | 0.015
in ethyl acetate, 290.15 K | 0.0155
in ethyl acetate, 293.15 K | 0.0166
in ethyl acetate, 296.15 K | 0.0178
in ethyl acetate, 299.15 K | 0.0188
in ethyl acetate, 302.15 K | 0.0204
in ethyl acetate, 305.15 K | 0.0225
in ethyl acetate, 310.15 K | 0.0256
in ethyl acetate, 315.15 K | 0.0289
in ethyl acetate, 320.15 K | 0.0327
in ethyl acetate, 325.15 K | 0.0363
in ethyl acetate, 330.15 K | 0.0406
in ethyl acetate, 335.15 K | 0.045
in ethyl acetate, 340.15 K | 0.0506
in formamide, 284.15 K | 0.00078
in formamide, 288.15 K | 0.000929
in formamide, 294.15 K | 0.00117
in formamide, 305.15 K | 0.00199
in formamide, 308.15 K | 0.00229
in formamide, 312.15 K | 0.00277
in formamide, 316.15 K | 0.00348
in formamide, 320.15 K | 0.0043
in formamide, 324.15 K | 0.00512
in formamide, 329.15 K | 0.00639
in formamide, 334.15 K | 0.00776
in formamide, 340.15 K | 0.00994
in formamide, 345.15 K | 0.0122
in formamide, 350.15 K | 0.015
in water, 294.15 K | 0.000895
in water, 298.15 K | 0.000994
in water, 303.15 K | 0.00111
in water, 308.15 K | 0.00122
in water, 313.15 K | 0.00136
in water, 318.15 K | 0.00153
in water, 323.15 K | 0.00172
in water, 328.15 K | 0.00192
in water, 333.15 K | 0.00215
in water, 338.15 K | 0.0024
in water, 343.15 K | 0.00267
in water, 348.15 K | 0.00297
in water, 353.15 K | 0.00338
